{
  "source": "patent US12435091B2",
  "about": "“RNA-binding protein multimerization inhibitors and methods of use thereof” (THE UAB RESEARCH FOUNDATION, priority 2020, dated 2025)",
  "assay_type_in_all_cases": "cell-based",
  "key": {"[1]": {"tested_on": "U251 cells expressing Fluc construct", "test": "control Fluc (full length luciferase) reporter assay in U251 cells", "procedure,_shortened": "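U251 cells carrying HuR fused to N- or C-terminal split firefly luciferase halves (dimer reporter) or full-length Fluc (control); constructs induced with doxycycline 0.75 ug/ml for 48 h. Compounds at various concentrations vs vehicle for 6 h. Luciferin-driven luminescence read; mean+SD.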"}, "LN229 glioma cell line": {"tested_on": "LN229 glioma cell line", "test": "cell cycle analysis (propidium iodide, flow cytometry)", "conditions": "LN229, 10 uM for 18 hours", "protocol": "(§1) Cell cycle distribution was evaluated using a standard staining procedure with propidium iodide (PI) (Sigma-Aldrich; St. Louis, MO) followed by flow cytometry. For cell cycle analysis, cells were plated at low density and synchronized by starvation in serum-free media for 48 hours, then treated with drug or vehicle (control) for 18 hours in normal media with 10% serum. Next, cells were collected, washed, and resuspended in ice-cold phosphate buffered saline (PBS). Cells were fixed under gentle vortexing by dropwise addition of a 10×volume of ice-cold 80% ethanol (−20° C.) on ice. Subsequently, samples were stored at −20° C. for at least 18 hours until data acquisition. Before cell cycle analysis, cells were washed in PBS and treated with RNase A (200 μg/mL, in PBS) and PI (20 μg/mL) for 45 minutes at 23° C. Acquisition of at least 10000 events per sample was performed in UAB Flow Cytometry Facility. Data were analyzed by FlowJo v10 software (Becton, Dickinson and Company; Franklin Lakes, NJ).\n(§2) HuR is one of the key regulators of cell cycle progression in cancer cells, particularly high-grade glioma; therefore, the arrest of cell cycle progression by the newly identified compounds supports HuR-targeted inhibition. FIG. 5B illustrates representative histograms of cell cycle progression in the established U251, LN229, and the PDGx XD456 glioma cell lines in the control (treatment with vehicles) and after treatment with SRI-42127. The bar graph represents the average numbers of cells in each phase of the cell cycle after treatment with the SRI-42127 normalized to the corresponding control values (vehicle treatment). There was a significant accumulation of cells in the G1 phase and a reduction of cells in the S phase after treatment with SRI-42127, 10 uM for 18 hours. […] The average reductions of cells in the S phase were 65±4% (n=3), 60±3% (n=3), and 70±3% (n=3) in U251, LN229, and XD456 cell lines, respectively, after treatment with SRI-42127 compared to the control."}, "[2]": {"tested_on": "PDGx XD456 glioma cell line", "test": "cell cycle analysis (propidium iodide, flow cytometry)", "conditions": "XD456, 10 uM for 18 hours", "protocol": "as §1, §2"}, "U251 glioma cell line": {"tested_on": "U251 glioma cell line", "test": "cell cycle analysis (propidium iodide, flow cytometry)", "conditions": "U251, 10 uM for 18 hours", "protocol": "as §1, §2"}, "U251 cell line": {"tested_on": "U251 cell line", "test": "soft agar colony formation assay", "conditions": "3 uM", "protocol": "(§3) The soft agar colony formation assay was performed by using 0.9% and 0.45% agarose for the bottom and the top layers, respectively; cells were incorporated in the top layer. Seaplaque low-melting temperature agarose was purchased from Lonza (Rockland, ME). Five hundred cells per well were utilized in both, the soft agar and the attached colony formation assays, which were performed in 6 well plates; cells were treated with vehicle as the control or with the desired drugs, which were administered twice per week for three weeks. The Crystal violet solution (0.1%) was utilized for colony staining in both assays. The colonies were counted after three weeks of treatment; the plate images were obtained by using Amersham Imager-600 reader (Piscataway, NJ).\n(§4) Graphs in FIG. 8D illustrate the average numbers of colonies formed by established U251 and PDGx XD456 cell lines in the attached cell colony formation assay and in the soft agar colony formation assay, which represents anchorage independent cell growth."}, "XD456 cell line": {"tested_on": "XD456 cell line", "test": "soft agar colony formation assay", "conditions": "3 uM", "protocol": "as §3, §4"}, "[3]": {"tested_on": "PDGx neurosphere cell lines (JX12p, X14P, XD456, X1524, and JX22p)", "test": "RNA-Seq analysis and gene ontology enrichment across all PDGx neurosphere cell lines", "conditions": "3 uM for 12 hours, in four of five neurosphere cell lines", "protocol": "Illumina global RNA-sequencing data were generated by utilizing PDGx neurospheres, which have been treated with a compound as described herein (e.g., SRI-42127, 3 uM) for 12 hours or with vehicle as the control. RNA was isolated by using TRIzol reagent (Invitrogen; Carlsbad, CA). The RNA samples were processed.\nThe RNA-Sequencing data was generated using glioma neurospheres representing the different molecular subtypes (classical, neuronal, and mesenchymal) in the control (treatment with vehicle) and after treatment with SRI-42127, 3 uM for 12 hours. First, analysis of direct HuR mRNA targets and their corresponding cell signaling pathways was performed by using gene sets, which have been defined as the direct HuR targets following tumor neurosphere treatment with DHTS compound, an established modulator of the HuR/mRNA interaction.\nSignificant down-regulation of the pathways responsible for i) cell cycle progression, ii) DNA replication, iii) transport mature transcript to cytoplasm, iv) DNA strand elongation, v) capped intron-containing pre-mRNA processing, vi) DNA repair, vii) unwinding of DNA, viii) alpha-linolenic (omega 3) and linoleic (omega 6) metabolism, ix) chromosome maintenance, x) messenger RNA splicing was observed. It is established that HuR can control the centrosome and microtubule organizing center in cancer cells. […]"}},
  "data": [
    {"smiles": "CN(c1ccc2ncc(-c3ccc4cn[nH]c4c3)n2n1)C1CCOCC1", "note": "[Compound 19]", "values": [
      {"measurement": "decrease of luminescence signal from cells overexpressing the control Fluc construct", "setting": "[1]; 6 hours, represents the cytotoxic effect", "result": "26±9", "unit": "%"},
      {"measurement": "inhibition at 50 µM", "setting": "[1]; Homo sapiens, U-251, 6 h, Concn 50 uM, read-out: Fluc Imax % Inh", "result": 26, "unit": "%"},
      {"measurement": "increase of cells in the G1 phase compared to the control", "setting": "LN229 glioma cell line", "result": "56±28", "unit": "%"},
      {"measurement": "reduction of cells in the S phase compared to the control", "setting": "LN229 glioma cell line", "result": "60±3", "unit": "%"},
      {"measurement": "increase of cells in the G1 phase compared to the control", "setting": "[2]", "result": "210±40", "unit": "%"},
      {"measurement": "reduction of cells in the S phase compared to the control", "setting": "[2]", "result": "70±3", "unit": "%"},
      {"measurement": "increase of cells in the G1 phase compared to the control", "setting": "U251 glioma cell line", "result": "97±33", "unit": "%"},
      {"measurement": "reduction of cells in the S phase compared to the control", "setting": "U251 glioma cell line", "result": "65±4", "unit": "%"},
      {"measurement": "number of colonies", "setting": "U251 cell line", "result": "90+70"},
      {"measurement": "number of colonies", "setting": "XD456 cell line", "result": "39+6"},
      {"measurement": "up-regulation of Tubb2A transcript", "setting": "[3]", "result": "more than 2 folds"}
    ]}
  ]
}
